± gives the expanded uncertainty stated by the source.
Assay: xn = mol fraction of the nth substance listed
Settings: 101 kPa, Liquid

CCCCCCC [heptane] + CCO
mass density [kg/m3]
Settings	293.21 K	293.22 K	298.16 K	298.17 K	303.17 K	308.17 K	313.17 K	318.17 K	318.18 K
x2 = 0	–	683.82 ± 0.65	679.75 ± 0.65	–	675.51 ± 0.66	671.21 ± 0.67	666.97 ± 0.67	–	662.67 ± 0.68
x2 = 0.0237	–	684.36 ± 0.65	–	680.19 ± 0.65	675.81 ± 0.66	671.53 ± 0.66	667.19 ± 0.67	663.59 ± 0.68	–
x2 = 0.0507	–	685.26 ± 0.64	–	681.04 ± 0.65	676.65 ± 0.66	672.35 ± 0.66	667.92 ± 0.67	–	662.82 ± 0.68
x2 = 0.1041	–	687.27 ± 0.64	–	683.06 ± 0.65	678.74 ± 0.65	674.32 ± 0.66	669.78 ± 0.67	665.46 ± 0.67	–
x2 = 0.2043	691.74 ± 0.63	–	–	687.5 ± 0.64	683.12 ± 0.64	678.62 ± 0.65	674.12 ± 0.66	669.66 ± 0.66	–
x2 = 0.3044	697.14 ± 0.62	–	–	692.93 ± 0.63	688.45 ± 0.63	683.9 ± 0.64	679.46 ± 0.65	674.88 ± 0.65	–
x2 = 0.3971	703.04 ± 0.61	–	–	698.76 ± 0.62	694.32 ± 0.62	689.82 ± 0.63	685.29 ± 0.64	680.74 ± 0.64	–
x2 = 0.4975	710.62 ± 0.6	–	–	706.35 ± 0.6	701.88 ± 0.61	697.41 ± 0.62	692.92 ± 0.62	688.34 ± 0.63	–
x2 = 0.6043	–	720.54 ± 0.58	–	716.27 ± 0.59	711.77 ± 0.59	707.35 ± 0.6	702.8 ± 0.61	698.25 ± 0.61	–
x2 = 0.6954	730.78 ± 0.57	–	–	726.58 ± 0.57	722.09 ± 0.58	717.65 ± 0.58	713.21 ± 0.59	708.71 ± 0.59	–
x2 = 0.8023	745.94 ± 0.54	–	–	741.81 ± 0.54	737.39 ± 0.55	733.18 ± 0.56	728.57 ± 0.57	724.14 ± 0.57	–
x2 = 0.9009	764.36 ± 0.51	–	–	760.18 ± 0.51	755.87 ± 0.52	751.57 ± 0.53	747.21 ± 0.53	742.91 ± 0.54	–
x2 = 0.9531	–	776.53 ± 0.49	–	772.37 ± 0.49	768.14 ± 0.5	763.83 ± 0.51	759.41 ± 0.51	–	754.95 ± 0.52

Source: the NIST ThermoML archive (doi:10.1016/j.jct.2004.12.002)
